Read-outs that look alike come from different tables or passages of the source.
Columns and labels:
[1] = tested on: NCI-N87 xenograft; assay: In vivo efficacy in NCI-N87 xenograft mouse model; conditions: for RTV T/C / tumor growth inhibition: day-7 after treatment
Experimental: NCI-N87 cell line was purchased from ATCC (American Type Culture Collection) and was cultured in RPMI1640+10% FBS+1% P/S antibiotics.
Male Balb/c nude mice, 6-8 week, 18±2 g (supplier: Shanghai SLAC Laboratory Animal Co. Ltd.) were used for the experiment. The purchased mice were adapted to the environment for 7 days before use, and were housed at 22-25° C. with humidity 40-70%, and light cycle with fluorescent light for 12-hour light (8:00-20:00) 12-hour dark. The mice have free access to food and water.
The cancer cells (NCI-N87) were implanted subcutaneous into the nude mice (right flank) with 5.0×10^6 cells in 0.1 ml PBS (50 mice). When the tumor size reaches a volume of 200 (150-200) mm^3, the tumor-bearing nude mice were randomly assigned into groups (10 mice/group), one group was served as vehicle, one group was administrated with Lapatinib ditosylate monohydrate (80 mg/kg, free base of Lapatinib, not salt, p.o. […]). The other two groups were administrated with NT113 (also referred to as KID 113) ((15 and 30 mg/kg, p.o.q.d, respectively). The administration period lasted for 4 weeks.
The mice were monitored twice daily for appearance and behavior, and for signs of morbidity and/or mortality. The tumor volume was measured twice a week, and the body weight was measured immediately before measuring the tumor volume throughout the whole study.
At end of the experiment (compound administration for four weeks), all the tumor-bearing mice were sacrificed by cervical dislocation under deep anesthesia. The tumor mass was resected, and weighed.
Tumor sizes were measured twice weekly in two dimensions using a caliper, and the volume was expressed in mm^3 using the formula: V=½×a×b^2 where a and b are the long and short diameters of the tumor, respectively. The tumor mass was weighed at the end of the experiment after harvested.
V=½×a×b^2 (a, h is maximum and minimum diameters respectively).
RTV (Relative Tumor Volume)=Vt/Vo • Vo is the tumor volume when the test article is initial administrated • Vt is the tumor volume of every measurement day after test article administration
T/C (%)=TRTV/CRTV×100% • TRTV: RTV of test article-treatment group; CRTV: RTV of control group Inhibition rate (%)=(average tumor volume of control group average cancer volume of test article treatment group)/average tumor volume of control group×100%
The tumor-bearing mice were treated for 4 weeks with different doses of KU (15 mg/kg, 30 mg/kg, […]), qd) and Lapatinib KUA-1, 80 mg/kg, p.o., bid, 7 days/week. At the day-7 after treatment, the RTV TIC KU113 (15 mg/kg, 30 mg/kg) groups were <30%, and the tumor growth inhibition was >70%. but the RTV TIC was 31% and tumor growth inhibition rat was 69% in the lapatinib group. The same result was observed as well when it comes to the tumor weight. On day 28 after treatment, all the tumor-bearing mice were sacrificed, and all the tumor masses were harvested to weigh.

[2] = tested on: NCI-N87 cells; assay: Anti-proliferation assay of NCI-N87 cells (CCK-8); format: cell-based; conditions: Homo sapiens, 72h
Experimental: The anti-proliferative assays were performed in triplicates. 3000 cell/well of N87 cells were seeded in 96-well plate, and the cells were incubated for 24h at 37° C. to allow adherence. For the cell proliferation assay, N87 cells were cultured in full cell culture medium containing 0.3% v/v DMSO. A serials concentration of the tested compound (concentration range: 30 uM to 0.16 nM, 5-fold dilution) were added to the 96-welt plate. The incubation was continued for 72h. The culture medium was then removed, and the cell viability was measured by using CCK-8 cell proliferation kit as described in manual provided by the manufacturer. The log of the fractional growth inhibition was plotted against the log of the drug concentration, and the IC50 values were interpolated from the resulting linear regression curve fit. The IC50 value measured for Compound NT113 is <100 nM.

[3] = molecular target: ErbB2 kinase protein (Homo sapiens (Human), UniProt P04626); assay: Kinase assay for ErbB2; format: biochemical; conditions: read-out: Kinase inhibition IC50 (nM) ErbB2
ErbB2 kinase protein, sequence (P04626 23-1255): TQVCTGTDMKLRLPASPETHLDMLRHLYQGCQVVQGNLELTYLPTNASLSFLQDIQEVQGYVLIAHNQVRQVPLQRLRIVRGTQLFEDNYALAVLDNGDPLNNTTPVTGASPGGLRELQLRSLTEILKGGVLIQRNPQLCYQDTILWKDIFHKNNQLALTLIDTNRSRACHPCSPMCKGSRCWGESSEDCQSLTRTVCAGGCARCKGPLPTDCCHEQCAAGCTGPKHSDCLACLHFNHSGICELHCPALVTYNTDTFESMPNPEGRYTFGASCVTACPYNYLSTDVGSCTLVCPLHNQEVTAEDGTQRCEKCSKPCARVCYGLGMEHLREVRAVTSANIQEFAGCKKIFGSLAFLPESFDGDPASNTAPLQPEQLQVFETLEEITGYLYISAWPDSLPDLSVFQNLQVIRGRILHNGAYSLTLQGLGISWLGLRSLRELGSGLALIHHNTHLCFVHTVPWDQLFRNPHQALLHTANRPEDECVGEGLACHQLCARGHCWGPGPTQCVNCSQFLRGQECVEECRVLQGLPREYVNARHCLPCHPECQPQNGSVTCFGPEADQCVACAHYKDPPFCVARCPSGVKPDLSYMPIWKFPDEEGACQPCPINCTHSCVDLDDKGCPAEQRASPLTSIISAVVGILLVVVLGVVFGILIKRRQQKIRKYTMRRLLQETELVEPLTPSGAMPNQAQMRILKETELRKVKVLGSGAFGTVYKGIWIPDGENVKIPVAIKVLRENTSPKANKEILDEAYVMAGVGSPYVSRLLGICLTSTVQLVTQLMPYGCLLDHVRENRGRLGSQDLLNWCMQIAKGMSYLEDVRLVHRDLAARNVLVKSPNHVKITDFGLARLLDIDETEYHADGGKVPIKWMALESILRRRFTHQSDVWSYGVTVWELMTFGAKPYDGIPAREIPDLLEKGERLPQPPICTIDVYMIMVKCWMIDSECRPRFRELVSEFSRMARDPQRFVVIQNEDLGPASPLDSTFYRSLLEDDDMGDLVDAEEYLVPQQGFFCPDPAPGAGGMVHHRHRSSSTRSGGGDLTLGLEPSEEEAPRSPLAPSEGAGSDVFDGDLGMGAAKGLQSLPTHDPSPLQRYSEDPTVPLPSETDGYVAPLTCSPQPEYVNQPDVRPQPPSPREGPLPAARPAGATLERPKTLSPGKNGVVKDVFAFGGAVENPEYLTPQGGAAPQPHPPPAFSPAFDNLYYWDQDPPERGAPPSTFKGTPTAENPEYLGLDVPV
Experimental: The assay is performed similarly to the kinase assay for […] as described above, except ErbB2 kinase protein is used instead of EGFR kinase protein.

CN(C)C/C=C/C(=O)Nc1cc2c(Nc3ccc(F)c(Cl)c3)ncnc2cc1C#C[C@@H]1[C@H]2COC[C@@H]12 [Example 4, (E)-N-(4-(3-chloro-4-fluorophenylamino)-7-(2-((1R,5S,6s)-3-oxa-bicyclo[3.1.0]hexan-6-yl)ethynyl)quinazolin-6-yl)-4-(dimethylamino)but-2-enamide]
tolerability (side effect) ([1]; 15 mg/kg, po, qd): without predefined side effect | body weight after dosing was stopped ([1]; 30 mg/kg group, by day 28): recovered to normal | body weight effect ([1]; 30 mg/kg, p.o., qd, 7 days/week): body weight loss | RTV T/C ([1]; 15 mg/kg po qd): < 30% | tumor growth inhibition ([1]; 15 mg/kg po qd): > 70% | RTV T/C ([1]; 30 mg/kg po qd): < 30% | tumor growth inhibition ([1]; 30 mg/kg po qd): > 70% | IC50 ([2]; read-out: Cell Proliferation Inhibition IC50 (nM) NCI-N87): < 100 nM | IC50 ([2]; read-out: IC50 NCI-N87 anti-proliferation): < 100 nM | IC50 [3]: < 100 nM

Source: US11524956B2, “Alkyne substituted quinazoline compound and methods of use” (Newgen Therapeutics, Inc., priority 2011, dated 2022)
